30 compounds from patent US10526323B2, “Indazole and azaindazole substituted compounds as mGluR4 allosteric potentiators, compositions, and methods of treating neurological dysfunction” (Vanderbilt University, priority 2015, dated 2020) can be followed below.

For the assay, the target named is mGluR4 (UniProt Q14833). Kind of assay: mGluR4 potentiation assay: increase in response to an EC20 concentration of agonist (species not given). Format: cell-based. Conditions: EC50 for potentiation of mGluR4; table does not state human or rat. The method in brief:
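Human mGluR4 was expressed in CHO cells read with a Ca2+-sensitive dye; rat mGluR4 was co-expressed with GIRK in […] read by thallium flux. Potentiation is the rise over agonist-alone response, with EC50 and maximal potentiation from non-linear fits.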
For the compound `CCCCCn1nc(C)c2cc(Nc3n[nH]c4cccnc34)ccc21` [Example 91], the EC50 (usually the concentration at which the effect is half-maximal) came out at 19 nM.

As to `Cc1nn(C(C)C)c2cc(Nc3n[nH]c4c3CCCC4)ccc12` [Example 20, 1-isopropyl-3-methyl-N-(4,5,6,7-tetrahydro-1H-indazol-3-yl)-1H-indazol-6-amine], the EC50 was more than 10000 nM.

With `Clc1cc(Nc2n[nH]c3cccnc23)cc2cn(CC3CCC3)nc12` [Example 66, N-(7-chloro-2-(cyclobutylmethyl)-2H-indazol-5-yl)-1H-pyrazolo[4,3-b]pyridin-3-amine], the EC50 was 117 nM.

On to `Cc1cc(Cn2cc3ncc(Nc4n[nH]c5cccnc45)cc3n2)no1` [Example 144, N-(2-((5-methylisoxazol-3-yl)methyl)-2H-pyrazolo[4,3-b]pyridin-6-yl)-1H-pyrazolo[4,3-b]pyridin-3-amine], for which the EC50 was more than 10000 nM.

For `Cn1nc(N2CC(C)(C3CC3)CC2=O)c2ccc(Nc3n[nH]c4cccnc34)cc21` (stereo not drawn) [Example 39, 1-(6-((1H-pyrazolo[4,3-b]pyridin-3-yl)amino)-1-methyl-1H-indazol-3-yl)-4-cyclopropyl-4-methylpyrrolidin-2-one], the concentration giving a half-maximal response (EC50) came to 765 nM.

In the case of `Cc1nn(CCO)c2ccc(Nc3n[nH]c4cccnc34)cc12` [Example 94, 2-(5-((1H-pyrazolo[4,3-b]pyridin-3-yl)amino)-3-methyl-1H-indazol-1-yl)ethan-1-ol], the concentration for a half-maximal effect (EC50) was more than 10000 nM.

Take `Cc1cc(Cn2ncc3ncc(Nc4n[nH]c5cccnc45)cc32)no1` [Example 146, N-(1-((5-methylisoxazol-3-yl)methyl)-1H-pyrazolo[4,3-b]pyridin-6-yl)-1H-pyrazolo[4,3-b]pyridin-3-amine]: the EC50 is more than 10000 nM.

In the case of `Cc1ccccc1Cc1nn(C)c2cc(Nc3n[nH]c4cccnc34)ccc12` [Example 48, N-(1-methyl-3-(2-methylbenzyl)-1H-indazol-6-yl)-1H-pyrazolo[4,3-b]pyridin-3-amine], the concentration for a half-maximal effect (EC50) came out at 4400 nM.

Regarding `c1cnc2c(Nc3ccc4c(cnn4CC4CCC4)c3)n[nH]c2n1` [Example 85, N-(1-(cyclobutylmethyl)-1H-indazol-5-yl)-1H-pyrazolo[3,4-b]pyrazin-3-amine], the EC50 was 57 nM.

Regarding `Cc1nn(CC(C)(C)C)c2ncc(Nc3n[nH]c4cccnc34)cc12` [Example 262, 1-(2,2-dimethylpropyl)-3-methyl-N-(1H-pyrazolo[4,3-b]pyridin-3-yl)pyrazolo[3,4-b]pyridin-5-amine], the concentration for a half-maximal effect (EC50) was 160 nM.

On to `Cc1nn(CCC(C)C)c2ncc(Nc3n[nH]c4cccnc34)cc12` [Example 154, 1-isopentyl-3-methyl-N-(1H-pyrazolo[4,3-b]pyridin-3-yl)pyrazolo[3,4-b]pyridin-5-amine], for which the EC50 is 170 nM.

Turning to `Cc1nn(CC2CCCC2)c2ccc(Nc3n[nH]c4cccnc34)cc12` [Example 106, N-(1-(cyclopentylmethyl)-3-methyl-1H-indazol-5-yl)-1H-pyrazolo[4,3-b]pyridin-3-amine], the EC50 came to 145 nM.

With `Cc1nn(C2CCC2)c2ncc(Nc3n[nH]c4cccnc34)cc12` [Example 158, 1-cyclobutyl-3-methyl-N-(1H-pyrazolo[4,3-b]pyridin-3-yl)pyrazolo[3,4-b]pyridin-5-amine], the concentration giving a half-maximal response (EC50) turned out to be 200 nM.

As for `Cn1nc(Cl)c2ccc(Nc3n[nH]c4cccnc34)cc21` [Example 31, N-(3-chloro-1-methyl-1H-indazol-6-yl)-1H-pyrazolo[4,3-b]pyridin-3-amine], the EC50 was 171 nM.

On to `CC(C)n1ncc2cc(Nc3n[nH]c4cccnc34)cc(Cl)c21` [Example 58, N-(7-chloro-1-isopropyl-1H-indazol-5-yl)-1H-pyrazolo[4,3-b]pyridin-3-amine], for which the EC50 was 2290 nM.

As to `CCC(F)(F)Cn1nc(C)c2cc(Nc3n[nH]c4ncccc34)ccc21` [Example 137, N-(1-(2,2-difluorobutyl)-3-methyl-1H-indazol-5-yl)-1H-pyrazolo[3,4-b]pyridin-3-amine], the EC50 was found to be 436 nM.

For the compound `FC(F)(F)Cn1nc(Cl)c2cc(Nc3n[nH]c4cccnc34)ccc21` [Example 275, N-(3-chloro-1-(2,2,2-trifluoroethyl)-1H-indazol-5-yl)-1H-pyrazolo[4,3-b]pyridin-3-amine], the concentration for a half-maximal effect (EC50) came out at 2720 nM.

Regarding `COc1cc(Nc2n[nH]c3nccnc23)cc2c1cnn2C` [Example 53, N-(4-methoxy-1-methyl-1H-indazol-6-yl)-1H-pyrazolo[3,4-b]pyrazin-3-amine], the EC50 is 247 nM.

Take `Cc1nn(CC2CC2)c2ccc(Nc3n[nH]c4cccnc34)cc12` [Example 111, N-(1-(cyclopropylmethyl)-3-methyl-1H-indazol-5-yl)-1H-pyrazolo[4,3-b]pyridin-3-amine]: the EC50 was found to be 36 nM.

As for `Cn1nc(Oc2ccc(C#N)cn2)c2ccc(Nc3n[nH]c4cccnc34)cc21` [Example 237, 6-((6-((1H-pyrazolo[4,3-b]pyridin-3-yl)amino)-1-methyl-1H-indazol-3-yl)oxy)nicotinonitrile], the 50% effective concentration (EC50) came out at 157 nM.

As to `CC(C)Cn1nc(Cl)c2cc(Nc3n[nH]c4cccnc34)ccc21` [Example 274, N-(3-chloro-1-isobutyl-1H-indazol-5-yl)-1H-pyrazolo[4,3-b]pyridin-3-amine], the EC50 came to 3020 nM.

Take `Cn1nc(OC2COC2)c2ccc(Nc3n[nH]c4cccnc34)cc21` [Example 216, N-[1-methyl-3-(oxetan-3-yloxy)indazol-6-yl]-1H-pyrazolo[4,3-b]pyridin-3-amine]: the EC50 was determined as 629 nM.

As to `Cc1nn(C2CCC2)c2ccc(Nc3n[nH]c4cccnc34)cc12` [Example 107, N-(1-cyclobutyl-3-methyl-1H-indazol-5-yl)-1H-pyrazolo[4,3-b]pyridin-3-amine], the half-maximal effective concentration (EC50) was determined as 374 nM.

Consider `c1cnc2c(Nc3cnc4cnn(CC5CCC5)c4c3)n[nH]c2c1` [Example 142, N-(1-(cyclobutylmethyl)-1H-pyrazolo[4,3-b]pyridin-6-yl)-1H-pyrazolo[4,3-b]pyridin-3-amine], for which the EC50 was more than 10000 nM.

In the case of `CC(C)n1nc(Cl)c2cc(Nc3n[nH]c4cccnc34)ccc21` [Example 280, N-(3-chloro-1-isopropyl-1H-indazol-5-yl)-1H-pyrazolo[4,3-b]pyridin-3-amine], the EC50 was more than 10000 nM.

As to `Cc1nn(C(C)C)c2cc(Nc3n[nH]c4nccnc34)ccc12` [Example 18, N-(1-isopropyl-3-methyl-1H-indazol-6-yl)-1H-pyrazolo[3,4-b]pyrazin-3-amine], the EC50 was more than 10000 nM.

On to `Cn1ncc2cc(Nc3n[nH]c4c3CCCC4)ccc21` [Example 57, 1-methyl-N-(4,5,6,7-tetrahydro-1H-indazol-3-yl)-1H-indazol-5-amine], for which the EC50 was more than 10000 nM.

As to `c1cnc2c(Nc3ccc4c(C5CC5)n[nH]c4c3)n[nH]c2c1` [Example 247, N-(3-cyclopropyl-1H-indazol-6-yl)-1H-pyrazolo[4,3-b]pyridin-3-amine], the EC50 was found to be 452 nM.

On to `Cn1ncc2cc(Nc3n[nH]c4c3CCCC4)cc(Cl)c21` [Example 67, 7-chloro-1-methyl-N-(4,5,6,7-tetrahydro-1H-indazol-3-yl)-1H-indazol-5-amine], for which the half-maximal effective concentration (EC50) was more than 10000 nM.

In the case of `Cn1nc(OC2CCOCC2)c2ccc(Nc3n[nH]c4cccnc34)cc21` [Example 225, N-(1-methyl-3-((tetrahydro-2H-pyran-4-yl)oxy)-1H-indazol-6-yl)-1H-pyrazolo[4,3-b]pyridin-3-amine], the EC50 turned out to be 46 nM.
